US20230150951A1, “2,5- OR 2,6-DISUBSTITUTED HYDROQUINONE DERIVATIVES WITH AT LEAST ONE CARBOXY, SULFO OR AMIDO GROUP USEFUL AS MEDICAMENTS” (OM PHARMA SA, priority 2020, published 2023)
Like-named read-outs stand apart in the source and are kept apart here.

How the values were obtained:
Assay type in all cases: cell-based
IL-2 = assay: Cytokine release after LPS induction on human whole blood: IL-2
Experimental: (§1) Aim of this in vitro method is to assess compounds effects on release of a panel of cytokines from whole blood following lipopolysaccharide (LPS) induced inflammatory reaction. Whole blood was incubated with compounds for 1 h prior to LPS induction. Cytokine levels in blood were measured using a multiplex FACS-based panel.
(§2) IC50 values determined for the tested compounds expressed in microM [μM] and the values for the inhibition of cytokines were listed for each compound.
(§3) Effect on cytokines release after LPS induction was performed on the compounds dissolved in DMSO or H2O to reach 10-fold concentrated stock solutions and dissolved in culture media.
(§4) Test system: Whole blood was removed from a single donor (into lithium heparin coated tubes; BD Vacutainer; 367886) and diluted 1:5 with RPMI 1640 (Thermo Fisher, 61870036). Within 30 minutes of sampling, blood was incubated with compounds for 1 h prior to LPS stimulation (O111:B4—Sigma L4391; 10 ng/ml final concentration). Stimulation continued under standard cell culture conditions (37° C. with 5% CO2) overnight (18 h), after which plates were centrifuged and supernatant removed and frozen at −80° C. until used for analyses.
(§5) Dilution of test compounds: 10×concentrated solutions (concerning to the final assay concentrations) of each test compound were prepared with the appropriate solvent (in DMSO or in water). These 10× compound solutions (10 μl) were then added to 90 μl pre-diluted whole blood (whole blood: RPMI1640, 1:5) resulting in the final assay concentration.
(§6) Test method: Diluted whole blood (80 μl) was pre-incubated with compounds (10 μl) to give final assay concentrations of 100, 30, 10, 3, 1, 0.3 and 0.1×10^−6M. Blood was incubated at 37° C. with 5% CO2 for 1 h. LPS was diluted in cell culture media to a concentration of […]; 10 μl was added to the whole blood to give a final concentration of 10 ng/ml. Plates were incubated at 37° C. for 18 h. Plates were centrifuged at 3,000 RPM for 5 minutes at 4° C. and supernatant removed and frozen at −80° C. until FACS analysis was carried out.
(§7) Cytokine release was measured using a custom multiplex system (ELISA Genie) according to manufacturers instructions. Prepared samples were run on an Attune NxT flow cytometer (Thermo Fisher).
(§8) Quantification of cytokine release inhibition: known concentration standards were run as part of the cytokine panel to allow quantification of each cytokine concentration in each sample. This was carried out using FCAP Array v3.0 software.
(§9) Results: The dose response relationship on cytokine release following LPS induction of inflammatory response in whole blood was assessed for all compounds. IC50 values were determined for each compound for a panel of cytokines (GM-CSF, IFN-gamma, IL-1beta, IL-2, IL-4, IL-5, IL-6, IL-8, IL-9, IL-10, IL-12p40, IL-13, IL-17A, IL-17F, IL-18, IL-21, IL-22, IL-33, TGF-beta, TNF-alpha, TNF-beta).

IL-6 = assay: Cytokine release after LPS induction on human whole blood: IL-6
Experimental: as §1, §2, §3, §4, §5, §6, §7, §8, §9

IL-9 = assay: Cytokine release after LPS induction on human whole blood: IL-9
Experimental: as §1, §2, §3, §4, §5, §6, §7, §8, §9

IL-21 = assay: Cytokine release after LPS induction on human whole blood: IL-21
Experimental: as §1, §2, §3, §4, §5, §6, §7, §8, §9

- IC50 (IL-2; Homo sapiens, LPS 10 ng/ml, 18 h, read-out: Whole Blood: IL-2 IC50): 19.6 µM
- IC50 (IL-2; human whole blood, inhibition of LPS induced inflammation, read-out: IC50 IL-2): 19.6 µM
- IC50 (IL-6; Homo sapiens, LPS 10 ng/ml, 18 h, read-out: Whole Blood: IL-6 IC50): 0.27 µM
- IC50 (IL-6; human whole blood, inhibition of LPS induced inflammation, read-out: IC50 IL-6): 0.27 µM
- IC50 (IL-9; Homo sapiens, LPS 10 ng/ml, 18 h, read-out: Whole Blood: IL-9 IC50): 18.9 µM
- IC50 (IL-9; human whole blood, inhibition of LPS induced inflammation, read-out: IC50 IL-9): 18.9 µM
- IC50 (IL-21; Homo sapiens, LPS 10 ng/ml, 18 h, read-out: Whole Blood: IL-21 IC50): 8.01 µM
- IC50 (IL-21; human whole blood, inhibition of LPS induced inflammation, read-out: IC50 IL-21): 8.01 µM
SMILES: O=C(O)c1cc(O)ccc1NC(=O)c1cc(O)cc(C(=O)Nc2ccc(O)cc2C(=O)O)c1O [IIc-009a, 2-(3-(2-carboxy-4-hydroxyphenylaminocarbonyl)-2,5-dihydroxybenzamido)-5-hydroxyl benzoic acid]
